From publication PMC12655351, “Synthesis and Anticancer Activity Evaluation of New 5-((5-Nitrofuran-2-yl)allylidene)-2-thioxo-4-thiazolidinones” (Pharmaceuticals, 2025)
Values joined by “and” are separate entries in the source; they are usually repeats but may differ in a detail not shown here. Equal values may be shown once. Read-outs that look alike come from different tables or passages of the source. Blank lines part the entries; values can stand above or below the compound they belong to.

Legend:
HCT-116 = assay: MTT assay; type: cell-based; conditions: Homo sapiens; HCT-116, 24 h of treatment
Description: (§1) The NCI-60 screening protocol utilizes the sulforhodamine B (SRB) assay following 48 h of compound exposure. […] The MTT assay was performed on eleven cancer cell lines: human breast cancer (MDA-MB-231, MCF-7, HCC 1954), human gastric cancer (AGS), human colorectal adenocarcinoma (HT-29, DLD-1, HCT 116), human neuroblastoma (SH SY5Y), and human leukemia (JURKAT, RMPI 8866, K-562) cell lines. The study was conducted in triplicate at the following seven concentrations: 0.62, 1.25, 2.5, 5, 10, 20, and 40 μM.
(§2) The selected cell lines were seeded into 96-well plates and cultured in accordance with the previously described methodology. Then, the cells were treated with all tested compounds and DOX at concentrations of 0.625, 1.25, 2.5, 5.0, 10.0, 20.0, and 40.0 μM for 24 h. A solution of 3-(4,5-dimethyl-2-thiazolyl)-2,5-diphenyl-2H-tetrazolium bromide (Sigma-Aldrich, St. Louis, MO, USA) in phosphate-buffered saline without calcium and magnesium (Corning, Kennebunk, ME, USA) at a concentration of 5 mg/mL was used to carry out MTT assay. After incubation, 20 μL of the prepared MTT solution was added, and then the cells were incubated at 37 °C for two hours. Afterwards, the cells were lysed using 100 μL of lysing buffer (comprising 25 mM HCl, 2% acetic acid, 3% DMF, and 5% SDS, with a pH of 4.7). The absorbance was determined at a wavelength of 570 nm using an Absorbance 96 microplate reader (Byonoy GmbH, Hamburg, Germany).

Jurkat = assay: MTT assay; type: cell-based; conditions: Homo sapiens, 24 h of treatment
Description: as §1, §2

MCF-7 = assay: MTT assay; type: cell-based; conditions: Homo sapiens, MCF7; MCF-7, 24 h of treatment
Description: as §1, §2

HCC-1954 = assay: MTT assay; type: cell-based; conditions: Homo sapiens, HCC1954; HCC-1954, 24 h of treatment
Description: as §1, §2

MDA-MB-231 = assay: MTT assay; type: cell-based; conditions: Homo sapiens; MDA-MB-231, 24 h of treatment
Description: as §1, §2

DLD-1 = assay: MTT assay; type: cell-based; conditions: Homo sapiens; DLD-1, 24 h of treatment
Description: as §1, §2

HT-29 = assay: MTT assay; type: cell-based; conditions: Homo sapiens; HT-29, 24 h of treatment
Description: as §1, §2

AGS = assay: MTT assay; type: cell-based; conditions: Homo sapiens, 24 h of treatment
Description: as §1, §2

K562 = assay: MTT assay; type: cell-based; conditions: Homo sapiens; K562, 24 h of treatment
Description: as §1, §2

RPMI 8866 = assay: MTT assay; type: cell-based; conditions: Homo sapiens; RPMI 8866, 24 h of treatment
Description: as §1, §2

SH SY5Y = assay: MTT assay; type: cell-based; conditions: Homo sapiens, 24 h of treatment
Description: as §1, §2

LOX IMVI = conditions: 48 h
SN12C = conditions: SN12C, 48 h
A498 [1] = assay: cells; conditions: Homo sapiens, A498, 48 h
A498 [2] = conditions: A498, 48 h
NCI-H460 = assay: NCI-60 SRB screen; conditions: NCI-H460, 48 h
NCI-H23 = assay: cells; conditions: Homo sapiens, NCI-H23, 48 h, read-out: LC50, NCI-H23, 48 h
Prostate Cancer = Prostate Cancer subpanel
RPMI-8226 = assay: cells; conditions: Homo sapiens, RPMI-8226, 48 h
RXF 393 = assay: NCI-60 SRB screen; conditions: RXF 393, 10 μM, 48 h
NCI-H266 = assay: NCI-60 SRB screen
OVCAR-3 = conditions: OVCAR-3, 48 h
HT29 = assay: cells; conditions: Homo sapiens, HT-29, 48 h
SK-OV-3 = assay: cells; conditions: Homo sapiens, SK-OV-3, 48 h
Breast cancer = Breast cancer subpanel
786-0 = assay: cells; conditions: Homo sapiens, 786-0, 48 h
U251 = assay: NCI-60 SRB screen
SK-MEL-5 = assay: cells; conditions: Homo sapiens, SK-MEL-5, 48 h
Leukemia = assay: cells; conditions: Homo sapiens

IC50 (HCT-116): 39 µM | IC50 (Jurkat): 4780 nM | IC50 (MCF-7): 11.3 µM | IC50 (HCC-1954): 12.5 µM | IC50 (MDA-MB-231): 25.4 µM | IC50 (DLD-1): 9.98 µM | IC50 (HT-29): 24.5 µM | IC50 (AGS): 12.1 µM | IC50 (K562): > 40 µM
SMILES: CC(C(=O)O)N1C(=O)/C(=C/C=C/c2ccc([N+](=O)[O-])o2)SC1=S (centres unmarked) [2b, 2-((Z)-5-((E)-3-(5-Nitrofuran-2-yl)allylidene)-4-oxo-2-thioxothiazolidin-3-yl)propanoic acid]
IC50 (RPMI 8866): 29 µM | IC50 (SH SY5Y): 30.6 µM

SMILES: O=C(O)CCCN1C(=O)/C(=C/C=C/c2ccc([N+](=O)[O-])o2)SC1=S [13b, 4-((Z)-5-((E)-3-(5-Nitrofuran-2-yl)allylidene)-4-oxo-2-thioxothiazolidin-3-yl)butanoic acid]
growth GP (LOX IMVI; LOX IMVI, 10 μM): -96.12% | TGI (LOX IMVI; LOX IMVI): 0.42 µM and 0.39 µM | CC50 (LOX IMVI; human): 810 nM | growth GP (SN12C; 10 μM): -96.81% | GI50 (SN12C): 170 nM | GI50 (A498 [1]): 4.13 µM | GI50 (A498 [2]): 3.32 µM | TGI (A498 [2]): 11.5 µM and 8.16 µM | GI50 (NCI-H460; Homo sapiens): 630 nM | CC50 (NCI-H460; Homo sapiens, read-out: LC50): 4.94 µM | GI50 (NCI-H460): 330 nM | TGI (NCI-H460): 1.99 µM and 1.39 µM | CC50 (NCI-H23): 6.24 µM | MG_MID TGI (Prostate Cancer): 2.57 µM | GI50 (RPMI-8226): 360 nM | CC50 (RPMI-8226; read-out: LC50): > 100 µM | growth GP (RXF 393): -97.90% | GI50 (NCI-H266; Homo sapiens, 48 h, NCI-H266, 48 h): 2790 nM | CC50 (NCI-H266; Homo sapiens, 48 h, read-out: LC50, NCI-H266, 48 h): 76.1 µM | GI50 (NCI-H266; NCI-H266, 48 h): 1650 nM | TGI (NCI-H266; NCI-H266, 48 h): 11.9 µM and 9.78 µM | IC50 (HCT-116): 3.97 µM | IC50 (Jurkat): 500 nM | IC50 (MCF-7): 1.63 µM | IC50 (HCC-1954): 3.12 µM | IC50 (MDA-MB-231): 8.73 µM | IC50 (DLD-1): 3.18 µM | IC50 (HT-29): 4.39 µM | IC50 (AGS): 2.1 µM | IC50 (K562): 3.57 µM | IC50 (RPMI 8866): 3.94 µM | IC50 (SH SY5Y): 8.41 µM | GI50 (OVCAR-3): 390 nM | TGI (OVCAR-3): 2.04 µM and 1.36 µM | GI50 (HT29; HT29, 48 h): 450 nM | CC50 (HT29; read-out: LC50, HT29, 48 h): 5.44 µM | GI50 (SK-OV-3): 2730 nM | CC50 (SK-OV-3; read-out: LC50, SK-OV-3, 48 h): 28.1 µM | MG_MID TGI (Breast cancer): 2.15 µM | GI50 (786-0): 320 nM | GI50 (U251; Homo sapiens, U-251, 48 h, U251, 48 h): 370 nM | CC50 (U251; Homo sapiens, U-251, 48 h, read-out: LC50, U251, 48 h): 4.23 µM | GI50 (U251; U251, 48 h): 190 nM | CC50 (U251; read-out: LC50, U251, 48 h): 3.16 µM | GI50 (SK-MEL-5): 610 nM | CC50 (SK-MEL-5; read-out: LC50, SK-MEL-5, 48 h): 4.61 µM | GI50 (Leukemia; read-out: MG_MID GI50): 9.34 µM | CC50 (Leukemia; read-out: MG_MID LC50): 87 µM
